One compound from BindingDB's records for patent US11407738 (Achillion Pharmaceuticals, 2022) can be followed below.

The target of the test is Complement factor D (Homo sapiens, UniProt P00746). As to the kind of experiment: Human Factor D Assay. As for the experimental part:
Human Factor D (purified from human serum, Complement Technology, Inc.) at 80 nM final concentration is incubated with test compound at various concentrations for 5 min at room temperature in 50 mM Tris, 1M NaCl, pH 7.5. A synthetic substrate Z-L-Lys-SBzl and DTNB (Ellman's reagent) are added to final concentrations of 100 μM each. […] IC50 values are calculated by nonlinear regression of complement Factor D reaction rates as a function of test compound concentration.

Chain of Complement factor D (P00746 whole entry): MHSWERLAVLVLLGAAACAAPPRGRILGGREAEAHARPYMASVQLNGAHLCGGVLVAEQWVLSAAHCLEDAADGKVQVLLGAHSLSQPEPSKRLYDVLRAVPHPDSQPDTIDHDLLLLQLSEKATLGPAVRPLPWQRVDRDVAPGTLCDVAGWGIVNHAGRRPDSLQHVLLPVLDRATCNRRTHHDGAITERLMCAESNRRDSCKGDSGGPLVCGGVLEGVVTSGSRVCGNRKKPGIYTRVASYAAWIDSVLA

On to `CC(=O)c1nn(CC(=O)N2C[C@H](F)C[C@H]2C(=O)NC2CCN(C(=O)c3cn[nH]c3)CC2)c2ccc(-c3cnc(C)nc3)cc12` [US11407738, Example 00330], for which the IC50 result was “in the range around 5.5 µM”.
